The values below come from patent US20230116196A1, “METHOD OF TREATING CNS DISORDERS WITH NEU[…] GABAERGIC COMPOUNDS” (priority 2017, published 2023).

Where two headings read alike, the source gives them in different places.

The subject of assay [1] is dentate gyrus granule cells (DGGCs). The assay is described as follows: Acute NAS exposure: phasic currents (sIPSCs) in DGGCs of hippocampal slices. The note with it: for mean sIPSC amplitude before versus during exposure / mean sIPSC decay time in the presence of NAS: 100 nM acute; for sIPSC Amplitude / sIPSC Decay / sIPSC Frequency: during acute 100 nM exposure. It counts as cell-based, mouse. On the procedure:
(§1) Brain slices were prepared from 3- to 5-week-old male C57 mice. Mice were anesthetized with isoflurane, decapitated, and brains were rapidly removed and submerged in ice-cold cutting solution containing (mM): 126 NaCl, 2.5 KCl, 0.5 CaCl2, 2 MgCl2, 26 NaHCO3, 1.25 NaH2PO4, 10 glucose, 1.5 sodium pyruvate, and 3 kynurenic acid. Coronal 310 μm thick slices were cut with the vibratome VT1000S (Leica Microsystems, St Louis, Mo., USA). The slices were then transferred into incubation chamber filled with prewarmed (31-32° C.) oxygenated artificial cerebro-spinal fluid (ACSF) of the following composition (in mM): 126 NaCl, 2.5 KCl, 2 CaCl2, 2 MgCl2, 26 NaHCO3, 1.25 NaH2PO4, 10 glucose, 1.5 sodium pyruvate, 1 glutamine, 3 kynurenic acid and 0.005 GABA bubbled with 95% O2-5% CO2. Slices were allowed to recover at 32° C. for at least 1 hr before recording. Exogenous GABA was added in an attempt to standardize ambient GABA in the slice and provide an agonist source for newly inserted extrasynaptic GABAARs.
After recovery, a single slice was transferred to a submerged, dual perfusion recording chamber (Warner Instruments, Hamden, Conn., USA) on the stage of an upright microscope (Nikon FN-1) with a 40× water immersion objective equipped with DIC/IR optics. Slices were maintained at 32° C. and gravity-superfused with ACSF solution throughout experimentation and perfused at rate of 2 ml/min with oxygenated (O2/CO2 95/5%) ACSF.
Whole-cell currents were recorded from the dentate gyrus granule cells (DGGCs) in 310-μm-thick coronal hippocampal slices. Patch pipettes (5-7MΩ) were pulled from borosilicate glass (World Precision Instruments) and filled with intracellular solution of the composition (in mM) as follows: 140 CsCl, 1 MgCl2, 0.1 EGTA, 10 HEPES, 2 Mg-ATP, 4 NaCl and 0.3 Na-GTP (pH=7.2 with CsOH). A 5 min period for stabilization after obtaining the whole-cell recording conformation (holding potential of −60 mV) was allowed before currents were recorded using an Axopatch 200B amplifier (Molecular Devices), low-pass filtered at 2 kHz, digitized at 20 kHz (Digidata 1440A; Molecular Devices), and stored for offline analysis.
For tonic current measurements, an all-points histogram was plotted for a 10 s period before and during 100 μM picrotoxin application, once the response reached a plateau level. Recordings with unstable baselines were discarded. Fitting the histogram with a Gaussian distribution gave the mean baseline current amplitude and the difference between the amplitudes before and during picrotoxin was considered to be the tonic current. The negative section of the all-points histogram which corresponds to the inward IPSCs was not fitted with a Gaussian distribution (Kretschmannova et al., 2013; Nusser and Mody, 2002). Series resistance and whole-cell capacitance were continually monitored and compensated throughout the course of the experiment. Recordings were eliminated from data analysis if series resistance increased by >20%. Spontaneous inhibitory post-synaptic currents (sIPSCs) were analyzed using the mini-analysis software (version 5.6.4; Synaptosoft, Decatur, Ga.). Minimum threshold detection was set to 3 times the value of baseline noise signal. To assess sIPSC kinetics, the recording trace was visually inspected and only events with a stable baseline, sharp rising phase, and single peak were used to negate artifacts due to event summation. Only recordings with a minimum of 200 events fitting these criteria were analyzed. sIPSCs amplitude, and frequency from each experimental condition was pooled and expressed as mean±SEM. To measure sIPSC decay, 100 consecutive events were averaged and the decay was fitted to a double exponential and the weighted decay constant (tw) was determined. Statistical analysis was performed by using Student t-test (paired and unpaired where appropriate), where p<0.05 is considered significant. […]

Assay [2] deals with GABA receptor trafficking. The assay is described as follows: GABA receptor trafficking measured by GABAergic current density. It counts as cell-based. The source says: As shown in above examples, not all neurosteroids can modulate GABA receptor trafficking.
Assay [3] deals with T1, α1β2γ2 GABAA receptors (Homo sapiens, UniProt P14867+P18507+P47870).
T1 construct: expressed in transfected cells; host or cells: LTK cells, stably transfected
T1 sequence (P14867 28-456): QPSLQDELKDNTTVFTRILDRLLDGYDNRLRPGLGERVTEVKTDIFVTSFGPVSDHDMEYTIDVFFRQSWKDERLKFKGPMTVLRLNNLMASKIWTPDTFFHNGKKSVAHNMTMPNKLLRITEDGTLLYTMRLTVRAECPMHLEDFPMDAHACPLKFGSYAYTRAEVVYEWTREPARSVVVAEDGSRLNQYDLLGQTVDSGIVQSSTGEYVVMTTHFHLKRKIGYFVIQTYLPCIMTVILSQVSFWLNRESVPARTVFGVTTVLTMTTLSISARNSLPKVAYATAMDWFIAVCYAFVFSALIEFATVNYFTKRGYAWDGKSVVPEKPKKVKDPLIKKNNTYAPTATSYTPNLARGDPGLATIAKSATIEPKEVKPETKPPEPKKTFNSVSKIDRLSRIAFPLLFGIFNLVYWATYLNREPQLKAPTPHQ
T1 sequence (P47870 25-512 limits assumed): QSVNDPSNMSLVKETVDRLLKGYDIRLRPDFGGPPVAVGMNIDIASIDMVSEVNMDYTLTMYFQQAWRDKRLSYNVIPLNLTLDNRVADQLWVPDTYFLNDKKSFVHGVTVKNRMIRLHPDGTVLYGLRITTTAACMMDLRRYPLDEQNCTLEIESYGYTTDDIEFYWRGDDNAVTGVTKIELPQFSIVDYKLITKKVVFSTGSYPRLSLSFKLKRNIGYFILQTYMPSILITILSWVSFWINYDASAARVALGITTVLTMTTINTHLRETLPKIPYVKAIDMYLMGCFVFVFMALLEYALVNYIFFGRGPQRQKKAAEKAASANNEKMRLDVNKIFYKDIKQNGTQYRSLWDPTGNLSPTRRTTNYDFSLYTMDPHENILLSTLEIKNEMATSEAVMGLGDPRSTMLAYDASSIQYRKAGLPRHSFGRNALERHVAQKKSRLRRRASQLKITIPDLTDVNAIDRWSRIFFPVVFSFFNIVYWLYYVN
T1 sequence (P18507 40-475): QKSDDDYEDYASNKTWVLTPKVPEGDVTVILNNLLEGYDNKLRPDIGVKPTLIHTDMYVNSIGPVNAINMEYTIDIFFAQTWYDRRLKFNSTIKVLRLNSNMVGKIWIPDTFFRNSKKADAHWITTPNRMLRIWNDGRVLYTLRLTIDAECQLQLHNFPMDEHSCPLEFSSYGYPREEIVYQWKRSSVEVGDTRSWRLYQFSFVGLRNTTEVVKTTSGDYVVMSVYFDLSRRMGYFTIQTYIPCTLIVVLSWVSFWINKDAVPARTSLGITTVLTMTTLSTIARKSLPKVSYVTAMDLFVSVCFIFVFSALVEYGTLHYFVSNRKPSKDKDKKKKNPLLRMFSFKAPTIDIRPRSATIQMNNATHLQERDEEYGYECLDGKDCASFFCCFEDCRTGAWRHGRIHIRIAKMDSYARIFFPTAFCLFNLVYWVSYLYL
The assay is described as follows: Whole-cell patch clamp: potentiation of GABA EC20 currents at recombinant α1β2γ2 GABAA receptors. It is filed as cell-based. Here is the method:
Cellular electrophysiology was used to measure the pharmacological properties of ALLO, ganaxolone and SGE-516 in heterologous cell systems. Compounds were tested for their ability to affect GABA mediated currents at a submaximal agonist dose (GABA EC20=2 μM).
LTK cells were stably transfected with the α1β2γ2 subunits of the GABA receptor and CHO cells are transiently transfected with the α4β3γ subunits via the Lipofecatamine method. Cells were passaged at a confluence of about 50-80% and then seeded onto 35 mm sterile culture dishes containing 2 ml culture complete medium without antibiotics or antimycotics. Cells were cultivated at a density that enabled the recording of single cells without visible connections to other cells.
Whole-cell currents were measured with HEKA EPC-10 amplifiers using PatchMaster software. Bath solution for all experiments contained (in mM): NaCl 137, KCl 4, CaCl2 1.8, MgCl2 1, HEPES 10, D-Glucose 10, pH 7.4 with NaOH. Intracellular (pipette) solution contained (in mM): KCl 130, MgCl2 1, Mg-ATP 5, HEPES 10, EGTA 5, pH 7.2 with KOH. During experiments, cells and solutions were maintained at room temperature (19° C.-30° C.). For manual patchclamp recordings, cell culture dishes were placed on the dish holder of the microscope and continuously perfused (1 ml/min) with bath solution. After formation of a Gigaohm seal between the patch electrode and the cell (pipette resistance range: 2.5 MΩ-6.0MΩ; seal resistance range: >1 GΩ) the cell membrane across the pipette tip was ruptured to assure electrical access to the cell interior (whole-cell patch configuration).
Cells were voltage-clamped at a holding potential of −80 mV. GABAA receptors were activated by 2 μM GABA and compounds were sequentially applied at increasing concentrations for 30 s prior to a 2 s application of GABA. GABA and compounds were applied to cells via the Dynaflow perfusion system (Cellectricon, Sweden). Test compounds were dissolved in DMSO to form 10 mM stock solution and serially diluted to 0.01, 0.1, 1, and 10 μM in bath solution. […] All concentrations of test compound were tested on each cell. The relative percentage potentiation was defined as the peak amplitude in response to GABA EC20 in the presence of test compound divided by the peak amplitude in response to GABA EC20 alone, multiplied by 100.
ALLO and ganaxolone are known PAMs of both synaptic and extrasynaptic GABAAR-mediated currents. […] The α1β2γ2 or α4β3δ subunit combinations were chosen as representatives of typical synaptic and extrasynaptic GABAA receptors respectively.

The subject of assay [4] is dentate gyrus granule cells (DGGCs). The assay is described as follows: Acute NAS exposure: tonic current in DGGCs of hippocampal slices. It is filed as cell-based, mouse. The note with it: 100 nM, 10 min acute exposure; mean±SEM. On the procedure:
as §1, with “GABAARs. […]” for “GABAARs.”
Whole-cell currents were recorded from the dentate gyrus granule cells (DGGCs) in 310-μm-thick coronal hippocampal slices. […] A 5 min period for stabilization after obtaining the whole-cell recording conformation (holding potential of −60 mV) was allowed before currents were recorded using an Axopatch 200B amplifier (Molecular Devices), low-pass filtered at 2 kHz, digitized at 20 kHz (Digidata 1440A; Molecular Devices), and stored for offline analysis.
For tonic current measurements, an all-points histogram was plotted for a 10 s period before and during 100 μM picrotoxin application, once the response reached a plateau level. […] Series resistance and whole-cell capacitance were continually monitored and compensated throughout the course of the experiment. […] Spontaneous inhibitory post-synaptic currents (sIPSCs) were analyzed using the mini-analysis software (version 5.6.4; Synaptosoft, Decatur, Ga.). […] Only recordings with a minimum of 200 events fitting these criteria were analyzed. sIPSCs amplitude, and frequency from each experimental condition was pooled and expressed as mean±SEM. […]

As for `CC(=O)[C@H]1CC[C@H]2[C@@H]3CC[C@H]4C[C@H](O)CC[C@]4(C)[C@H]3CC[C@]12C` [ALLO, Allopregnanolone], in assay [1], the “mean sIPSC amplitude before versus during exposure” value is “no significant difference”, the “mean sIPSC decay time in the presence of NAS” value (from here on “mean sIPSC decay time”) is on record as “significantly increased”, the “sIPSC Amplitude” value was 39.1 pA and the “sIPSC Decay” value is 19.2 ms. For the same compound, the “sIPSC Frequency” value in assay [1] is 3.4 Hz. Moreover, the “modulation of GABA receptor trafficking” value in assay [2] is “modulated”. Further, in assay [3] (potentiation of current at GABA EC20 (2 μM), n = 3), the “pEC50 ± S.E.M., α1β2γ2” value stood at 6.9 ± 0.2. In assay [4], the “tonic current during acute exposure” value amounted to 58.3±13.0 pA.
What is called EC50 is the concentration that produces a half-maximal response. Take `CC(=O)[C@H]1CC[C@H]2[C@@H]3CC[C@H]4C[C@](C)(O)CC[C@]4(C)[C@H]3CC[C@]12C` [Ganaxolone]: in assay [1], the “mean sIPSC amplitude before versus during exposure” value is on record as “no significant difference”, the “mean sIPSC decay time” value is listed as “significantly increased”, the “sIPSC Amplitude” value came out at 55.1 pA and the “sIPSC Decay” value turned out to be 23.8 ms. The “sIPSC Frequency” value in assay [1] was 5.6 Hz. For the same compound, the “modulation of GABA receptor trafficking” value in assay [2] was “did not modulate”. In addition, in assay [3], the EC50 is 251 nM. The “tonic current during acute exposure” value in assay [4] was determined as 78.8±23.2 pA.
As usually defined, the Emax is the greatest response seen or fitted, relative to the assay's reference. In the case of `C[C@@]1(O)CC[C@@]2(C)[C@H](CC[C@@H]3[C@@H]2CC[C@]2(C)[C@@H](C(=O)Cn4nccn4)CC[C@@H]32)C1` [SGE-516], in assay [1], the “mean sIPSC amplitude before versus during exposure” value is reported as “no significant difference”, the “mean sIPSC decay time” value is given as “significantly increased”, the “sIPSC Amplitude” value is reported as 52.9 pA and the “sIPSC Decay” value was found to be 15.1 ms. Besides, the “sIPSC Frequency” value in assay [1] was determined as 4.6 Hz. In addition, in assay [2], the “modulation of GABA receptor trafficking” value is “modulated”. Also, in assay [3] (potentiation of current at GABA EC20 (2 μM), n = 3, read-out: EC50, α1β2γ2), the EC50 was determined as 61 nM. For the same compound, the Emax in assay [3] (relative percentage potentiation of GABA EC20 current, read-out: Emax ± S.E.M., α1β2γ2) worked out at 219%. For the same compound, the “tonic current during acute exposure” value in assay [4] is 49.2±8.9 pA.
